This note sets out measurements from patent US20140284001A1, “SYSTEMS AND METHODS FOR SPRAY DRYING IN MICROFLUIDIC AND OTHER SYSTEMS” (President and Fellows Of Harvard College, priority 2012, published 2014).

This series is described as follows: size of spray dried nanoparticles by scanning electron microscopy (SEM). Format: physicochemical. Conditions: dissolved in ethanol, spray dried with microfluidic nebulator, flow-focusing nebulization unit, four air inlets, 2.8 bar, 1 ml/h, collected 10 cm from outlet.

Regarding `Clc1ccccc1C(c1ccccc1)(c1ccccc1)n1ccnc1` [clotrimazole], the average nanoparticle diameters is 24+/−8 nm.
